Laboratory results as given in PubChem BioAssay AID651691 (NMMLSC, 2012).
Activity calls are given as the source filed them. No rule for the calls is given here.

Tests used:
BoNT/ALC = experiment: confirmation, biochemical, FRET, cleavage-site specific substrates (AID 651691); conditions: FRET protease cleavage assay, BoNT/A LC or LF
LF = experiment: as above; conditions: FRET protease cleavage assay, BoNT/A LC or LF

O=[N+]([O-])c1ccc(C2=NN(c3ccccc3)C(c3ccco3)C2)cc1 (stereo not given)
IC50 (BoNT/ALC): > 20000 nM (inactive)

COc1ccccc1N1N=C(c2ccc([N+](=O)[O-])cc2)CC1c1ccccc1 (stereo not given)
IC50 (BoNT/ALC): 200 nM

Cc1ccc(-c2cn3nc(-c4ccccc4)c(-c4ccccc4)nc3n2)cc1
IC50 (BoNT/ALC): 300 nM
IC50 (LF): inactive

O=C(Nc1ccc2nc(-c3cccs3)c(-c3cccs3)nc2c1)NC1CC1
IC50 (BoNT/ALC): > 20000 nM (inactive)
IC50 (LF): inactive

COc1ccc(-c2cn3nc(-c4ccccc4)c(-c4ccccc4)nc3n2)cc1
IC50 (BoNT/ALC): 500 nM
IC50 (LF): inactive

COc1ccc(C2CC(c3cccs3)=NN2c2nc(C)c(C(C)=O)s2)cc1OC (stereo not given)
IC50 (BoNT/ALC): 1300 nM

O=C(Nc1ccc2nc(-c3cccs3)c(-c3cccs3)nc2c1)N1CCOCC1
IC50 (BoNT/ALC): > 20000 nM (inactive)

c1ccc(-c2cn3nc(-c4ccccc4)c(-c4ccccc4)nc3n2)cc1
IC50 (BoNT/ALC): 500 nM

Clc1ccc(-c2cn3nc(-c4ccccc4)c(-c4ccccc4)nc3n2)cc1
IC50 (BoNT/ALC): 700 nM
IC50 (LF): inactive

O=[N+]([O-])c1ccc(N2N=C(c3ccccc3)CC2c2ccccc2)cc1 (stereo not given)
IC50 (BoNT/ALC): 1000 nM

O=C(Nc1ccc2nc(-c3cccs3)c(-c3cccs3)nc2c1)N1CCCCC1
IC50 (BoNT/ALC): 1200 nM
